Results reported in patent publication US12263175B2, “Optimised dosage of diaminophenothiazines in populations” (WisTa Laboratories Ltd., priority 2018, dated 2025).
Values joined by “and” are separate entries in the source; they are usually repeats but may differ in a detail not shown here. Equal values may be shown once. Read-outs that look alike come from different tables or passages of the source.

Columns and labels:
[1] = Population PK model estimate of steady-state parent MT Cmax in AD patients (Studies 005 and 015); assay type: in vivo, human; conditions: for Cmax: human, plasma, oral
Text: This, the PK model was then further developed and simplified to a two compartment model fit to the parent MT concentrations only. This model has a fixed Vc, but the dose-dependent Ka is removed.
This model was derived from Study 036 discussed above. The disposition of parent MT post PO administration of LMTM was adequately described by a two-compartment model with and a delayed absorption occurring through two transit compartments. Apparent oral clearance (CL/F) of parent MT was related to renal function such that a small portion of the variability in parent CL is described by normalized creatinine clearance (CLCRN).
The population PK model was then used to estimate Cmax of parent MT in the patients who received 4 mg or high dose (c. 200 mg/day) in these Phase 3 AD studies. This Bayesian process involved fixing the population mean and inter-individual variability parameters to the estimates from the fit of the population PK model to the steady-state data from Study 036 and allowing the program to select a set of parameters, given those Bayesian priors, which best predicts the parent MT concentrations from Day 1 in each individual.
(§1) That threshold was <0.373 ng/mL.
Higher doses were grouped according to dose (N=187-329 per group).
Since only 65% of patients receiving the 8 mg/day have plasma concentrations above the threshold required for significant treatment benefit, it is desirable to determine the minimum dose at which 100% patients would be expected to have plasma levels within the therapeutic range.

bvFTD patients = test: Phase 3 bvFTD trial: clinical and MRI endpoints by Cmax,ss group; assay type: in vivo, human
Text: The trial design for the Phase 3 trial of LMTM in behavioural variant frontotemporal dementia (bvFTD) is described in Examples 3 to 10 of WO2018/041739, which Examples also discuss those results. The disclosure of those Examples is specifically incorporated herein by reference.
(§2) The population PK model described above was used to estimate Cmax of parent MT in the patients in the bvFTD study. As with the AD trials described above, the median value at each dose was taken as a threshold for dividing patients into “High Cmax” and “Low Cmax” groups.
However the decline in the Cmax high group was much reduced (−6.1±1.8). All efficacy analyses are based on an MMRM approach
Alternative efficacy analyses were performed in which the group of patients with minimal systemic exposure to the drug was used as a proxy for placebo. These are shown in the Table EX8 below and illustrated in FIG. 19.
In addition, a linear term was added to permit trends occurring at high concentrations to be included in the model using mean decline occurring at the 200 mg/day dose.

[2] = Population PK model estimate of steady-state parent MT Cmax in bvFTD trial patients; assay type: in vivo; conditions: human, plasma, oral, 8 mg/day, read-out: Cmax,ss cut-off, upper limit of the lowest 35% group
Protocol: as §2
The cut-off that defined the upper limit of the lowest 35% group (corresponding to the percentage of patients with plasma levels below the validated limit of quantitation in Day 1) was 0.346 ng/ml for the bvFTD population.
As for AD (see Example 10) the remainder with Day 1 plasma levels within the validated range of quantitation at the 8 mg/day dose were distributed in 3 groups having approximately equal numbers (22% each; see Table EX7 below).

AD patients = test: Phase 3 AD studies 005 and 015: clinical and MRI volumetric endpoints by Cmax,ss group; assay type: in vivo, human; conditions: for EC50: Homo sapiens, 10920 h, ADAS-cog over 65 weeks, read-out: Cmax,ss concentration required for half-maximal treatment response
Protocol: The trial design for the Phase 3 AD studies “005” and “015” are described in Examples 4 and 3 respectively of WO2018/019823, which Examples also discuss those results. The disclosure of those Examples is specifically incorporated herein by reference. Briefly, those Phase 3 trials compared high doses of LMTM (150-250 mg/day) with a low dose (8 mg/day) intended as a mask for potential urine discolouration (Gauthier 2016; Wilcock 2018).
The results are shown in FIGS. 3a and 3b which show the same data. Patients using symptomatic treatments are labelled “Achmem”.
as §1
A further analysis of ADAS-cog decline over 65 weeks was undertaken using a modified form of the Hill equation (Wagner, 1968) in order to estimate the minimum and maximum plasma concentrations for expected treatment response over 65 weeks. […] In addition, a linear term was added to permit trends occurring at high concentrations to be included in the model using data for doses in the range 150-250 mg/day. The expanded Hill equation was applied to the data in the form: change in parameter=Emin−(Emax*([C]−0.29))/(EC50+([C]−0.29))+(A*([C]−0.29)) where Emin is the imposed zero value, Emax is the maximum treatment effect assumed in the standard Hill equation, EC50 is the Cmax,ss at which the treatment effect is 50% of the maximum assumed in the standard Hill equation and A is a further linear term estimated by the model to take account of a potential biphasic response. […] The dose range in which the treatment response is estimated to be maximal is 20-60 mg/day.

[3] = system: tau transgenic mouse model; test: Tau transgenic mouse model, spatial learning memory after pre-treatment with symptomatic drugs; assay type: in vivo
Text: As is evident from the foregoing, there is a reduction in the maximum effect of LMTM when it is combined with symptomatic treatments. It should be noted however, that this relates to a context in which patients have received LMTM against a background of chronic pre-treatment with symptomatic drugs. The mechanism of this has been elucidated in a series of experiments in a well characterised tau transgenic mouse model.

[4] = A. All patients split by Cmax,ss 0.373 ng/mL, over 65 weeks
[5] = B. Patients receiving LMTM, 8 mg/day, over 65 weeks
[6] = LMTM, 8 mg/day, as add-on therapy (AChEI and/or memantine), over 65 weeks
[7] = LMTM, 8 mg/day, as monotherapy, over 65 weeks
[8] = LMTM, 8 mg/day, threshold 0.373 ng/ml, over 65 weeks

Question: With `CN(C)c1ccc2c(c1)Sc1cc(N(C)C)ccc1N2` [LMTM, leuco-methylthioninium bis(hydromethanesulfonate)] as the compound, how does the “Proportion of subjects above Cmax threshold” value ([1]; 4 mg bid) read?
Answer: 50%

Question: And the “Critical therapeutic threshold for Cave,ss” value ([1]; AD patients)?
Answer: 0.223 ng/mL

Question: And the “Critical therapeutic threshold for Cmax,ss” value ([1]; AD patients)?
Answer: 0.393 ng/mL

Question: What about the “Patients with plasma concentrations above the threshold required for significant treatment benefit” value ([1]; AD patients receiving 8 mg/day) of the same compound?
Answer: 65%

Question: What about the “Plasma-modelled parent MT Cmax,ss Mean (SD)” value ([1]; AD, studies TRx-237-015 and TRx-237-005, 8 mg/day - Group 2) of the same compound?
Answer: 0.393 (0.0125) ng/mL

Question: What about the “Dose for 100% of patients to have plasma levels in the therapeutic range” value ([1]; AD, QD or BID, either Cmax,ss or Cave,ss criterion) of the same compound?
Answer: at least 16 mg/day

Question: What about the “Proportion of subjects achieving Cmax above the median-derived threshold value” ([1]; dosing above 20 mg MT (e.g. as LMTM), depends on number of split doses) of the same compound?
Answer: 90 to 100%

Question: And the Cmax ([1]; 8 mg/day, AD patients receiving LMTM 8 mg/day, read-out: Cmax,ss threshold, upper limit of the lowest 35% of patients)?
Answer: < 0.373 ng/mL

Question: And the Cmax ([1]; 8 mg/day, AD, studies TRx-237-015 and TRx-237-005, 8 mg/day - Group 1, read-out: Plasma-modelled parent MT Cmax,ss Range)?
Answer: 0.257 to 0.373 ng/mL

Question: And the Cmax ([1]; 8 mg/day, AD, studies TRx-237-015 and TRx-237-005, 8 mg/day - Group 2, read-out: Plasma-modelled parent MT Cmax,ss Range)?
Answer: 0.373 to 0.414 ng/mL

Question: What about the Cmax ([1]; 8 mg/day, AD, studies TRx-237-015 and TRx-237-005, 8 mg/day - Group 3, read-out: Plasma-modelled parent MT Cmax,ss Range) of the same compound?
Answer: 0.415 to 0.478 ng/mL

Question: What about the Cmax ([1]; 8 mg/day, AD, studies TRx-237-015 and TRx-237-005, 8 mg/day - Group 4, read-out: Plasma-modelled parent MT Cmax,ss Range) of the same compound?
Answer: 0.479 to 0.812 ng/mL

Question: And the Cmax ([1]; 150 mg/day, AD, studies TRx-237-015 and TRx-237-005, 150 mg/day, read-out: Plasma-modelled parent MT Cmax,ss Range)?
Answer: 5.1 to 18.6 ng/mL

Question: What about the Cmax ([1]; 200 mg/day, AD, studies TRx-237-015 and TRx-237-005, 200 mg/day, read-out: Plasma-modelled parent MT Cmax,ss Range) of the same compound?
Answer: 6.56 to 21.3 ng/mL

Question: And the Cmax ([1]; 250 mg/day, AD, studies TRx-237-015 and TRx-237-005, 250 mg/day, read-out: Plasma-modelled parent MT Cmax,ss Range)?
Answer: 8.83 to 21.2 ng/mL

Question: And the “Estimated proportion of subjects above Cmax threshold” value ([1]; ˜20 mg/day (10 mg bid))?
Answer: ~100%

Question: What about the “Lower limiting plasma concentration required for treatment response” value (bvFTD patients; bvFTD patients receiving 8 mg/day, expanded Hill equation) of the same compound?
Answer: 0.29 ng/mL

Question: What about the “Dose-response for high dose monotherapy on functional FAQ scale” value (bvFTD patients; bvFTD, 200 mg/day vs 8 mg/day) of the same compound?
Answer: inverse dose-response

Question: And the “Predicted dose corresponding to the maximum limiting concentration” value (bvFTD patients; bvFTD, whole brain volume over 52 weeks)?
Answer: 301 mg/day

Question: What about the “Maximum limiting concentration at which the treatment effect was lost” value (bvFTD patients; bvFTD, whole brain volume over 52 weeks, expanded Hill equation) of the same compound?
Answer: 13.57 ng/mL

Question: What about the Cmax [2] of the same compound?
Answer: 0.346 ng/mL

Question: What about the “Predicted treatment effect relative to placebo” value (AD patients; 4 mg bid, over 65 weeks) of the same compound?
Answer: ~5 ADAS-cog units

Question: What about the “ADAS-cog Difference ± SEM, Cmax,ss above vs below 0.373 ng/mL” value (AD patients; [4]) of the same compound?
Answer: −2.99 ± 0.67 ADAS-cog units

Question: And the “ADCS-ADL Difference ± SEM, Cmax,ss above vs below 0.373 ng/mL” value (AD patients; [4])?
Answer: 0.54 ± 0.94

Question: And the “LVV Difference ± SEM, Cmax,ss above vs below 0.373 ng/mL” value (“LVV Difference ± SEM, Cmax,ss above” for short) (AD patients; [4])?
Answer: −1.52 ± 0.34 cm^3

Question: What about the “WBV Difference ± SEM, Cmax,ss above vs below 0.373 ng/mL” value (“WBV Difference ± SEM, Cmax,ss above” below) (AD patients; [4]) of the same compound?
Answer: 3.55 ± 1.06 cm^3

Question: And the “ADCS-ADL Difference ± SEM, Cmax,ss above vs below 0.373 ng/mL” value (AD patients; [5])?
Answer: 1.22 ± 1.01

Question: And the “LVV Difference ± SEM, Cmax,ss above” value (AD patients; [5])?
Answer: −1.78 ± 0.38 cm^3

Question: And the “WBV Difference ± SEM, Cmax,ss above” value (AD patients; [5])?
Answer: 4.39 ± 1.18 cm^3

Question: And the EC50 (AD patients; LMTM combined with symptomatic treatments)?
Answer: 0.4 ± 0.05 ng/mL

Question: And the EC50 (AD patients; LMTM monotherapy)?
Answer: 0.32 ± 0.01 ng/mL

Question: And the “ADAS-cog11 Difference ± SEM, Cmax,ss above vs below 0.373 ng/mL” value (AD patients; [6])?
Answer: −3.52 ± 0.78

Question: What about the “ADCS-ADL23 Difference ± SEM, Cmax,ss above vs below 0.373 ng/mL” value (AD patients; [6]) of the same compound?
Answer: 1.32 ± 1.04

Question: What about the “LVV Difference ± SEM, Cmax,ss above” value (AD patients; [6]) of the same compound?
Answer: −1.35 ± 0.37 cm^3

Question: What about the “WBV Difference ± SEM, Cmax,ss above” value (AD patients; [6]) of the same compound?
Answer: 4.69 ± 1.21 cm^3

Question: What about the “ADAS-cog11 Difference ± SEM, Cmax,ss above vs below 0.373 ng/mL” value (AD patients; [7]) of the same compound?
Answer: −2.60 ± 1.16

Question: And the “ADCS-ADL23 Difference ± SEM, Cmax,ss above vs below 0.373 ng/mL” value (AD patients; [7])?
Answer: 0.46 ± 1.47

Question: And the “LVV Difference ± SEM, Cmax,ss above” value (AD patients; [7])?
Answer: −1.46 ± 0.45 cm^3

Question: What about the “WBV Difference ± SEM, Cmax,ss above” value (AD patients; [7]) of the same compound?
Answer: 2.76 ± 1.66 cm^3

Question: What about the “ADAS-cog11 Difference ± SEM, low Cmax add-on vs high Cmax monotherapy” value (AD patients; [8]) of the same compound?
Answer: −7.53 ADAS-cog11 units and −7.53 ± 1.22 ADAS-cog11 units

Question: What about the “ADCS-ADL23 Difference ± SEM, low Cmax add-on vs high Cmax monotherapy” value (AD patients; [8]) of the same compound?
Answer: 6.14 ± 1.64

Question: What about the “LVV Difference ± SEM, low Cmax add-on vs high Cmax monotherapy” value (AD patients; [8]) of the same compound?
Answer: −3.15 ± 0.62 cm^3

Question: What about the “WBV Difference ± SEM, low Cmax add-on vs high Cmax monotherapy” value (AD patients; [8]) of the same compound?
Answer: 11.54 ± 1.87 cm^3

Question: What about the “Dose range in which the treatment response is estimated to be maximal” value (AD patients; expanded Hill equation, ADAS-cog decline over 65 weeks) of the same compound?
Answer: 20 to 60 mg/day

Question: And the “Reduction of estimated maximum treatment effect when combined with symptomatic treatments, compared with monotherapy” value (AD patients; expanded Hill equation, over 65 weeks)?
Answer: about 4 ADAS-cog units

Question: What about the “Temporal lobe FDG-PET decline” value (AD patients; high dose LMTM (pooled 200 mg/day)) of the same compound?
Answer: attenuated benefit otherwise seen for LMTM monotherapy

Question: And the “Mean difference between monotherapy and add-on, ADAS-cog change” value (AD patients; pooled 8 mg/day (4 mg bid), Studies 005 and 015, over 65 weeks)?
Answer: ~4 ADAS-cog units

Question: What about the “Effect on spatial learning memory” value ([3]; chronic pre-treatment with rivastigmine) of the same compound?
Answer: elimination of the beneficial effect

Question: And the “Effect on spatial learning memory” value ([3]; pre-treatment with memantine)?
Answer: eliminated the effect
